According to the NIST ThermoML archive (doi:10.1021/je700645p):

Experiments:
[1] = xn = mol fraction of the nth substance listed; conditions: 81.5 kPa, Liquid
[2] = 81.5 kPa, Liquid
[3] = refractive index (Na D-line) (dimensionless); conditions: 298.15 K; 81.5 kPa; Liquid; Standard Abbe refractometry

O [water] + C[S+](C)[O-]
[1], x1 = 1
Conditions	mass density [kg/m3]
323.15 K	988.03
333.15 K	983.19

CC#N [acetonitrile] + O
mass density [kg/m3], [1]
Conditions	293.15 K	303.15 K	313.15 K	323.15 K	333.15 K
x2 = 0	781.97	771.15	760.2	749.12	737.87
x2 = 0.0417	785.6	774.79	763.85	752.77	741.52
x2 = 0.0833	789.62	778.83	767.91	756.84	745.6
x2 = 0.1568	797.67	786.95	776.09	765.06	753.85
x2 = 0.2095	804.01	793.33	782.6	771.62	760.47
x2 = 0.3247	819.96	809.63	799.11	788.38	777.43
x2 = 0.4127	834.27	824.27	814.05	803.6	792.91
x2 = 0.496	849.71	840.11	830.25	820.14	809.77
x2 = 0.5704	864.78	855.57	846.08	836.32	826.29
x2 = 0.6361	880.12	871.32	862.22	852.82	843.13
x2 = 0.7201	902.94	894.74	886.22	877.38	868.22
x2 = 0.7961	926.99	919.47	911.61	903.39	894.84
x2 = 0.8788	956.73	950.35	943.52	936.28	928.67
x2 = 0.9573	984.72	980.43	975.45	969.87	963.64

C[S+](C)[O-] [dimethyl sulfoxide] + CC#N
mass density [kg/m3], [1]
Conditions	293.15 K	303.15 K	313.15 K	323.15 K	333.15 K
x2 = 0	1100.41	1090.37	1080.34	1070.3	1060.27
x2 = 0.0563	1087.32	1077.27	1067.22	1057.17	1047.11
x2 = 0.1195	1072.32	1062.27	1052.21	1042.11	1032.03
x2 = 0.1751	1058.54	1048.48	1038.38	1028.38	1018.15
x2 = 0.2996	1025.83	1015.69	1005.54	995.35	985.14
x2 = 0.3723	1005.56	995.38	985.18	974.94	964.64
x2 = 0.4529	981.91	971.68	961.4	951.09	940.71
x2 = 0.5273	959	948.69	938.36	927.96	917.5
x2 = 0.579	942.39	932.08	921.68	911.22	900.68
x2 = 0.6896	904.94	894.48	883.96	873.36	862.66
x2 = 0.7579	880.41	869.88	859.27	848.57	837.77
x2 = 0.8337	851.62	841	830.29	819.48	808.55
x2 = 0.933	811.3	800.6	789.76	778.79	767.68

O [water] + CC#N
[1], x1 = 1
Conditions	mass density [kg/m3]
323.15 K	988.03
333.15 K	983.19

C[S+](C)[O-] [dimethyl sulfoxide] + O
mass density [kg/m3], [1]
Conditions	293.15 K	303.15 K	313.15 K	323.15 K	333.15 K
x2 = 0	1100.41	1090.37	1080.34	1070.3	1060.27
x2 = 0.0568	1100.94	1090.97	1081.01	1071.03	1061.04
x2 = 0.1605	1101.91	1092.1	1082.26	1072.41	1062.5
x2 = 0.2252	1102.54	1092.83	1083.1	1073.32	1063.49
x2 = 0.3187	1103.26	1093.73	1084.18	1074.52	1064.79
x2 = 0.3953	1103.54	1094.31	1084.89	1075.37	1065.74
x2 = 0.4582	1103.48	1094.25	1084.95	1075.54	1066
x2 = 0.5473	1102.05	1093.11	1084.03	1074.8	1065.41
x2 = 0.6473	1097.2	1088.67	1079.97	1071.08	1062
x2 = 0.7213	1089.55	1081.52	1073.28	1064.82	1056.12
x2 = 0.7997	1075.48	1068.31	1060.87	1053.13	1045.11
x2 = 0.8828	1051.12	1045.47	1039.4	1032.81	1024.92
x2 = 0.9632	1016.98	1013.46	1009.19	1003.92	998.73

CC#N [acetonitrile] + C[S+](C)[O-]
[1], x1 = 1
Conditions	mass density [kg/m3]
293.15 K	781.97
303.15 K	771.15
313.15 K	760.2
323.15 K	749.12
333.15 K	737.87

CC#N [acetonitrile]
[2]
Conditions	mass density [kg/m3]
293.15 K	781.97
303.15 K	771.15
313.15 K	760.2
323.15 K	749.12
333.15 K	737.87

Conditions	refractive index
[3]	1.3417

C[S+](C)[O-] [dimethyl sulfoxide]
[2]
Conditions	mass density [kg/m3]
293.15 K	1100.41
303.15 K	1090.37
313.15 K	1080.34
323.15 K	1070.3
333.15 K	1060.27

Conditions	refractive index
[3]	1.4767
